We go through 68 compounds from doi:10.1101/2021.10.07.463234v2 (biorxiv, 2021).

Structures can show the parent of a compound that is named as a salt.

One experiment has as its target SARS-CoV-2 Mac1 (Severe acute respiratory syndrome coronavirus 2, UniProt P0DTD1). As to the kind of experiment: biochemical. Particulars: 100 µM; inhibitor.
Turning to `OC[C@@H](O)[C@@H](O[C@@H]1O[C@H](CO)[C@H](O)[C@H](O)[C@H]1O)[C@H](O)[C@@H](O)CO` [Lactitol monohydrate], the %inhibition – broadly, the relative decrease from the control value, in per cent – is on record as 1.512%. Same read-out and setting: as for `CC1(C)[C@H](C(=O)O)N2C(=O)C[C@H]2S1(=O)=O` [Sulbactam], the figure is 20.75%; as for `C#Cc1cccc(Nc2ncnc3cc(OCCOC)c(OCCOC)cc23)c1` [Erlotinib], 10.85%; as for `CC1CNc2c(cccc2S(=O)(=O)N[C@@H](CCCNC(=N)N)C(=O)N2CC[C@@H](C)C[C@@H]2C(=O)O)C1` (some centres unmarked) [Argatroban], 4.667%. `O=C(O)c1ccccc1O` [Salicylic acid]: the “%inhibition” value is recorded as 1.324%. The same measure, in the same setting: next, `CC[C@H]1OC(=O)[C@H](C)[C@@H](O[C@H]2C[C@@](C)(OC)[C@@H](O)[C@H](C)O2)[C@H](C)[C@@H](O[C@@H]2O[C@H](C)C[C@H](N(C)C)[C@H]2O)[C@](C)(O)C[C@@H](C)C(=O)[C@H](C)[C@@H](O)[C@]1(C)O` [Erythromycin]: 0%; `N#CC[C@H](C1CCCC1)n1cc(-c2ncnc3[nH]ccc23)cn1` [S-Ruxolitinib (INCB018424)]: 18.93%. On the same count and under the same terms, as for `N=C(N)NC(=O)c1nc(Cl)c(N)nc1N` [Amiloride HCl dihydrate], the figure is 4.635%; as for `O=C(O)Cc1ccccc1Nc1c(Cl)cccc1Cl` [Diclofenac Potassium], 7.108%; as for `CCOC(=O)C1=C(COCCN)NC(C)=C(C(=O)OC)C1c1ccccc1Cl` (centres unmarked) [Amlodipine Besylate], 25.29%. Same read-out and setting: as for `CCn1cc(C(=O)O)c(=O)c2cc(F)c(N3CCNCC3)nc21` [Enoxacin], the figure is 29.69%.

Still in this experiment, the particulars now being: read-out: %inhibition.
On to `COc1ccc(-c2ccc3cc(C(=O)O)ccc3c2)cc1[C@]12C[C@H]3C[C@H](C[C@H](C3)C1)C2` [Adapalene], for which the inhibition – broadly, the drop in the measured response relative to a control, in per cent – at 100 µM came out at 27.7%. As to `Cc1cccc(-c2nn3c(c2-c2ccnc4ccc(C(N)=O)cc24)CCC3)n1` [Galunisertib (LY2157299)], the inhibition at 100 µM is 0%.

Consider `COc1ccccc1Oc1c(NS(=O)(=O)c2ccc(C(C)(C)C)cc2)nc(-c2ncccn2)nc1OCCO` [Bosentan Hydrate], for which the inhibition at 100 µM came out at 0.962%. Same read-out and setting: as for `Clc1ccc(C(Cn2ccnc2)OCc2csc3c(Cl)cccc23)c(Cl)c1` (centres unmarked) [Sertaconazole nitrate], the figure is 0%; as for `CC1(C)[C@@H](O[C@H]2O[C@H](C(=O)O)[C@@H](O)[C@H](O)[C@H]2O[C@@H]2O[C@H](C(=O)O)[C@@H](O)[C@H](O)[C@H]2O)CC[C@]2(C)[C@H]3C(=O)C=C4[C@@H]5C[C@@](C)(C(=O)O)CC[C@]5(C)CC[C@@]4(C)[C@]3(C)CC[C@@H]12` [Ammonium Glycyrrhizinate], 0%. The same measure, in the same setting: next, `C[N+]1(C)CCCC(OC(=O)C(O)(c2ccccc2)c2ccccc2)C1` (centres unmarked) [Mepenzolate Bromide]: 0%; `CC(=O)Nc1ccccc1` [Acetanilide]: 30.4%. The same measure, in the same setting: next, `CC[C@]1(O)C[C@@H]2CN(CCc3c([nH]c4ccccc34)[C@@](C(=O)OC)(c3cc4c(cc3OC)N(C)[C@H]3[C@@](O)(C(=O)OC)[C@H](OC(C)=O)[C@]5(CC)C=CCN6CC[C@]43[C@@H]65)C2)C1` [Vinblastine sulfate]: 1.94%; `CCOc1nc2cccc(C(=O)OCc3oc(=O)oc3C)c2n1Cc1ccc(-c2ccccc2-c2noc(=O)[nH]2)cc1` [Azilsartan Medoxomil]: 9.53%; `Cc1cc(C(C)(C)C)cc(C)c1CC1=NCCN1` [Xylometazoline HCl]: 9.99%. As for `COc1ccc(CN(C(=O)[C@@H](N)Cc2c(C)cc(C(N)=O)cc2C)[C@@H](C)c2ncc(-c3ccccc3)[nH]2)cc1C(=O)O` [Eluxadoline], the inhibition at 100 µM was found to be 5.52%.

Regarding `CN(C)CCN1C(=O)c2cccc3cc(N)cc(c23)C1=O` [Amonafide], the inhibition at 100 µM was determined as 16.3%. Same read-out and setting: as for `Cc1cn[nH]c1` [Fomepizole], the figure is 0%; as for `CC[C@H]1OC(=O)[C@H](C)[C@@H](O[C@H]2C[C@@](C)(OC)[C@@H](O)[C@H](C)O2)[C@H](C)[C@@H](O[C@@H]2O[C@H](C)C[C@H](N(C)C)[C@H]2O)[C@](C)(O)C[C@@H](C)/C(=N\OCOCCOC)[C@H](C)[C@@H](O)[C@]1(C)O` [Roxithromycin], 0.445%; as for `Cc1onc(-c2ccccc2)c1C(=O)N[C@@H]1C(=O)N2[C@@H]1SC(C)(C)[C@@H]2C(=O)O` [Oxacillin sodium monohydrate], 0%. Still for that read-out and setting: as for `O=C[C@H](O)[C@@H](O)[C@H](O)CO` [Xylose], the figure is 0%. The same measure, in the same setting: next, `NC(=O)c1cn(Cc2c(F)cccc2F)nn1` [Rufinamide]: 25.2%.

In the case of `Nc1nc2ccc(OC(F)(F)F)cc2s1` [Riluzole], the inhibition at 100 µM was 0%. Same read-out and setting: next, `COC(=O)C1=C(C)NC(C)=C(C(=O)OC(C)(C)CN(C)CCC(c2ccccc2)c2ccccc2)C1c1cccc([N+](=O)[O-])c1` (centres unmarked) [Lercanidipine hydrochloride]: 0%; `CC(C)(CO)C(O)C(=O)NCCCO` (racemic) [DL-Panthenol]: 0%. Still for that read-out and setting: as for `CC(C[N+](C)(C)C)OC(N)=O` (centres unmarked) [Bethanechol chloride], the figure is 0%; as for `CC(=O)O` [Potassium acetate], 11.3%; as for `Cc1[nH]c2ccccc2c1CCNCc1ccc(/C=C/C(=O)NO)cc1` [Panobinostat (LBH589)], 7.31%.

On to `CCN(CCCCOC(=O)c1ccc(OC)c(OC)c1)C(C)Cc1ccc(OC)cc1` (centres unmarked) [Mebeverine Hydrochloride], for which the inhibition at 100 µM was 5.64%.

For `Nc1cccc2c1C(=O)N(C1CCC(=O)NC1=O)C2=O` (centres unmarked) [Pomalidomide], the inhibition at 100 µM came out at 0%. Same read-out and setting: next, `O=C(O)COc1nn(Cc2ccccc2)c2ccccc12` [Bendazac]: 3.85%; `CO[C@@H]1[C@@H](OC(N)=O)[C@@H](O)[C@H](Oc2ccc3c(O)c(NC(=O)c4ccc(O)c(CC=C(C)C)c4)c(=O)oc3c2C)OC1(C)C` [Novobiocin Sodium]: 0%; `CC(C)C[C@H](NC(=O)CNC(=O)c1cc(Cl)ccc1Cl)B(O)O` [Ixazomib (MLN2238)]: 5.63%. Consider `Oc1c(Br)cc(Br)c2cccnc12` [Broxyquinoline], for which the inhibition at 100 µM came out at 0%. On the same count and under the same terms, as for `NCC(O)c1ccc(O)cc1` (racemic) [(+,-)-Octopamine HCl], the figure is 0%.

Take `O=C(c1cc(Cc2n[nH]c(=O)c3ccccc23)ccc1F)N1CCN(C(=O)C2CC2)CC1` [Olaparib (AZD2281, Ku-0059436)]: the inhibition at 100 µM was 20.2%. With `NCCS(=O)(=O)O` [Taurine], the inhibition at 100 µM worked out at 0%. Still for that read-out and setting: as for `C=CN1CCCC1=O` [Povidone iodine], the figure is 0%; as for `C[N+](C)(C)CCO` [Choline Chloride], 0%; as for `CC1CCc2c(N3CCC(O)CC3)c(F)cc3c(=O)c(C(=O)O)cn1c23` (centres unmarked) [Nadifloxacin], 0%. On the same count and under the same terms, next, `O=C1CC2(CCCC2)CC(=O)N1CCCCN1CCN(c2ncccn2)CC1` [Buspirone HCl]: 7.05%; `COCCOC(=O)C1=C(C)NC(C)=C(C(=O)OC(C)C)C1c1cccc([N+](=O)[O-])c1` (centres unmarked) [Nimodipine]: 21.8%.

Regarding `CO[C@@]1(NC(=O)Cc2cccs2)C(=O)N2C(C(=O)O)=C(COC(N)=O)CS[C@@H]21` [Cefoxitin sodium], the inhibition at 100 µM is 0%. The same measure, in the same setting: as for `NCCCC[C@H](N[C@@H](CCc1ccccc1)C(=O)O)C(=O)N1CCC[C@H]1C(=O)O` [Lisinopril], the figure is 3.22%. On the same count and under the same terms, next, `NS(=O)(=O)c1cc2c(cc1Cl)NC(C(Cl)Cl)NS2(=O)=O` (centres unmarked) [Trichlormethiazide]: 0%; `COc1cc(OC)c(/C=C/S(=O)(=O)Cc2ccc(OC)c(NCC(=O)O)c2)c(OC)c1` [Rigosertib (ON-01910)]: 0.0877%; `CN1CCCCC1CCN1c2ccccc2Sc2ccc([S+](C)[O-])cc21` (centres unmarked) [Mesoridazine Besylate]: 6.43%.

On to `CC(C)(C)CC(C)(C)c1ccc(O)c(Cc2ccc(Cl)cc2Cl)c1` [Clofoctol], for which the inhibition at 100 µM is 0%. For `CCN(CCCc1ccccc1)CCCc1ccccc1` [Alverine Citrate], the inhibition at 100 µM came out at 8.25%.

Turning to `COc1cccc(CCc2ccccc2OCC(CN(C)C)OC(=O)CCC(=O)O)c1` (centres unmarked) [Sarpogrelate hydrochloride], the inhibition at 100 µM was determined as 0%. Same read-out and setting: next, `Nc1ccc(O)c(C(=O)O)c1` [Mesalamine]: 0%; `OCC(CO)N[C@H]1C[C@](O)(CO)[C@@H](O)[C@H](O)[C@H]1O` [Voglibose]: 7.63%; `CC(C)(C)NCC(O)c1cc(O)cc(O)c1` (centres unmarked) [Terbutaline Sulfate]: 0%.

With `Nc1cc(C(Cl)=C(Cl)Cl)c(S(N)(=O)=O)cc1S(N)(=O)=O` [Clorsulon], the inhibition at 100 µM is 7.3%. Same read-out and setting: next, `CC(C)(C)Cn1c(N)nc2ccc(-c3[nH]c(C(C)(C)C)nc3-c3ccc(F)cc3)nc21` [Ralimetinib (LY2228820)]: 0.925%; `NC(=O)C1CCCc2c1[nH]c1ccc(Cl)cc21` (centres unmarked) [Selisistat (EX 527)]: 15.7%; `C[Se]CC[C@H](N)C(=O)O` [L-SelenoMethionine]: 0%.

Take `CCC(=O)O[C@@H](O[P@](=O)(CCCCc1ccccc1)CC(=O)N1C[C@H](C2CCCCC2)C[C@H]1C(=O)O)C(C)C` [Fosinopril Sodium]: the inhibition at 100 µM was found to be 0%. The same measure, in the same setting: next, `CN(C)C(=O)c1cc2cnc(Nc3ccc(N4CCNCC4)cn3)nc2n1C1CCCC1` [Ribociclib (LEE011)]: 0.852%; `O=C(O)C(O)C(O)C(=O)O` (centres unmarked) [Choline bitartrate]: 0%; `Cc1cccc(C)c1NC(=O)CN1CCCC1=O` [Nefiracetam]: 8.32%.

For `C#C[C@]1(O)CC[C@H]2[C@@H]3CCC4=CC(=O)CC[C@@H]4[C@H]3CC[C@@]21CC` [Levonorgestrel], the inhibition at 100 µM was 53.4%.
